Experimental data reported in ChEMBL document CHEMBL1122930, “Synthesis and pharmacological characterization of 5-(2-dodecylphenyl)-4,6-dithianonanedioic acid and 5-[2-(8-phenyloctyl)phenyl]-4,6-dithianonanedioic acid: prototypes of a novel class of leukotriene antagonists” (J Med Chem, 1985).
Structures can show the parent of a compound that is named as a salt.

Experiments:
[1] = target: T1, Cysteinyl leukotriene receptor 1 (Cavia porcellus, UniProt Q2NNR5); experiment: Binding constant was determined as affinity to displace [3H]LTD4 from Cysteinyl leukotriene D4 receptor on guinea pig lung membrane; format: tissue-based
T1 sequence (Q2NNR5 whole entry): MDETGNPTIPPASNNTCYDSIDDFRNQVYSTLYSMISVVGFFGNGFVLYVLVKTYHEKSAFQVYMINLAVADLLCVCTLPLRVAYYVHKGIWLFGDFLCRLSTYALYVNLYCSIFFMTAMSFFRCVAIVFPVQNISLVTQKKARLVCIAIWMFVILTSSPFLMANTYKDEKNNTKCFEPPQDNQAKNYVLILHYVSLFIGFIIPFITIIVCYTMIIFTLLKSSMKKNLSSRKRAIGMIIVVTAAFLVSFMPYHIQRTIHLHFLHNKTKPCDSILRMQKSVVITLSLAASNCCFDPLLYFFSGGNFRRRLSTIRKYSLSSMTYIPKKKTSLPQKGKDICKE

Cavia porcellus [2] = experiment: Antagonistic effect on LTD4 induced change in air way resistance (RL) in anesthetized guinea pigs, at dose 5 ug/kg, administered intravenously; format: functional; settings: iv
Cavia porcellus [3] = experiment: Antagonistic effect on LTD4 induced change in lung compliance (CDYN) in anesthetized guinea pig, at dose 5 ug/kg, administered intravenously; format: functional; settings: iv
[4] = target: T2, Cysteinyl leukotriene receptor 1 (Cavia porcellus) (UniProt Q2NNR5); experiment: Dissociation constant towards Cysteinyl leukotriene D4 receptor of guinea pig
T2 sequence (whole entry): T1 sequence (Q2NNR5 whole entry)

[5] = target: T2, Cysteinyl leukotriene receptor 1 (Cavia porcellus)
Cavia porcellus [6] = experiment: Antagonistic effect on LTD4 induced changes in dynamic lung compliance (CDYN) in anesthetized guinea pigs, at dose 5 mg/kg when administered intravenously; format: functional; settings: route intravenous
Cavia porcellus [7] = experiment: Antagonistic effect on LTD4 induced change in airway resistance (RL) in anesthetized guinea pigs, at dose 5 mg/kg when administered intravenously; format: functional; settings: route intravenous
Cavia porcellus [8] = experiment: Antagonistic effect on LTD4 induced change in lung compliance (CDYN) in anesthetized guinea pigs, at dose 5 ug/kg, administered intravenously; format: functional; settings: iv
[9] = target: T2, Cysteinyl leukotriene receptor 1 (Cavia porcellus); remark: listed apart in the source

Row | Ki [1] | -Log K B [4] | -Log K B [5] | -Log K B [9] | SMILES | inhibition in vivo at 0.005 mg/kg (Cavia porcellus [2]) | inhibition in vivo at 0.005 mg/kg (Cavia porcellus [3]) | inhibition in vivo at 5 mg/kg (Cavia porcellus [6]) | inhibition in vivo at 5 mg/kg (Cavia porcellus [7]) | inhibition in vivo at 0.005 mg/kg (Cavia porcellus [8])
1 | 0.445 µM | 6 | – | – | CCCCCCCCCCCCc1ccccc1C(SCCC(=O)O)SCCC(=O)O | 97% | 83% | – | – | –
2 | – | – | 6.8 | – | CCCc1c(OCC(O)COc2ccc3c(=O)cc(C(=O)O)oc3c2CCC)ccc(C(C)=O)c1O (stereo unspecified) [FPL-55712 SODIUM SALT] | – | – | 97% | 97% | –
3 | 0.245 µM | – | – | 6.7 | O=C(O)CCSC(SCCC(=O)O)c1ccccc1CCCCCCCCc1ccccc1 | 100% | – | – | – | 95%
